Measurements as given in patent US8012503B2, “Method of enhancing absorptions of transmucosal administration formulations” (The Chinese University of Hong Kong, priority 2004, dated 2011).
Converted amounts (≈) assume the structure as drawn.

Experiments:
[1] = Solubility of ionized and non-ionized forms and ionization constant; type: physicochemical
Text: (§1) [formula] in which Ka is the ionization constant (dissociation constant) of the active compound of the medicament in water, Si is the solubility of the ionized form of the compound, and Su is the solubility of the non-ionized form of the compound. Si and Su can be easily obtained by measuring the drug solubility at two extreme pH levels where the ionized or non-ionized species are dominating. For example, after determining the Si and Su of propranolol and sildenafil, their pHmax values are calculated to be 7.62 and 4.25, respectively.
(§2) It has been investigated that permeability across the sublingual mucosa is dependent on the concentration of non-ionized propranolol in the environment. When a formulation of propranolol provides saliva with pH of about 7.2 to about 7.8, propranolol should maintain relatively high solubility as well as high fraction of non-ionized form in the saliva of human oral cavity. Preferably, the formulation for sublingual delivery is at about pH 7.6. This can be confirmed by equation (I). For propranolol.

[2] = oral administration of propranolol tablets, cited from earlier work
[3] = pHmax calculated from Ka, Si and Su; type: physicochemical; conditions: calculated after determining Si and Su
Text: [formula] in which Ka is the ionization constant (dissociation constant) of the active compound in water, Si is the solubility of the ionized form of the compound, and Su is the solubility of the non-ionized form of the compound.
as §1, §2

Row | solubility [1] [µg/mL] | pHmax [3] | SMILES | onset of action [2] | plasma half-life [2] [h] | bioavailability ([2]; hepatic first-pass effect)
1 | 539 (≈ 2080 µM) | 7.62 | CC(C)NCC(O)COc1cccc2ccccc12 (stereo not drawn) [propranolol, 1-(isopropylamino)-3-(1-naphthyloxy)-2-propanol] | over 1 hr | 2.8 to 4.4 | 10-30%
2 |  | 4.25 | CCCc1nn(C)c2c(=O)[nH]c(-c3cc(S(=O)(=O)N4CCN(C)CC4)ccc3OCC)nc12 [sildenafil] |  |  | 
